Measurements taken from PubChem BioAssay AID1963986 (Molecular Pharmacology Branch, DTP, NCI, 2024).

Tested on: 171881-019-R-J1-PDC tumor spheroid viability
Assay: Anticancer human tumor 171881-019-R-J1-PDC patient-derived invasive breast carcinoma cell line growth inhibition [PI3K]
Conditions: spheroids with HUVEC and MSC; for IC50: curve of first compound; for viability, T/C: stronger effect = lower value; active = viability on the fitted dose curve at most 10% of control; inactive = the rest
Outline: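 Three cell types, namely tumor cells, endothelial cells and mesenchymal stem cells, formed each spheroid. Combinations with four PI3K inhibitors were screened at clinically achievable concentrations decreasing by half-log, and spheroid viability was recorded.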

[1] = second compound 0.0316 µM, first compound 0.0316 µM
[2] = second compound 0.0316 µM, first compound 0.1 µM
[3] = second compound 0.0316 µM, first compound 0.316 µM
[4] = second compound 0.0316 µM, first compound 1 µM
[5] = second compound 0.0316 µM, first compound 3.16 µM
[6] = second compound 0.0316 µM, first compound 10 µM
[7] = second compound 0.1 µM, first compound 0.0316 µM
[8] = second compound 0.1 µM, first compound 0.1 µM
[9] = second compound 0.1 µM, first compound 0.316 µM
[10] = second compound 0.1 µM, first compound 1 µM
[11] = second compound 0.1 µM, first compound 3.16 µM
[12] = second compound 0.1 µM, first compound 10 µM
[13] = second compound 0.316 µM, first compound 0.0316 µM
[14] = second compound 0.316 µM, first compound 0.1 µM
[15] = second compound 0.316 µM, first compound 0.316 µM
[16] = second compound 0.316 µM, first compound 1 µM
[17] = second compound 0.316 µM, first compound 3.16 µM
[18] = second compound 0.316 µM, first compound 10 µM
[19] = second compound 1 µM, first compound 0.0316 µM
[20] = second compound 1 µM, first compound 0.1 µM
[21] = second compound 1 µM, first compound 0.316 µM
[22] = second compound 1 µM, first compound 1 µM
[23] = second compound 1 µM, first compound 3.16 µM
[24] = second compound 1 µM, first compound 10 µM
[25] = second compound 3.16 µM, first compound 0.0316 µM
[26] = second compound 3.16 µM, first compound 0.1 µM
[27] = second compound 3.16 µM, first compound 0.316 µM
[28] = second compound 3.16 µM, first compound 1 µM
[29] = second compound 3.16 µM, first compound 3.16 µM
[30] = second compound 3.16 µM, first compound 10 µM
[31] = second compound 10 µM, first compound 0.0316 µM
[32] = second compound 10 µM, first compound 0.1 µM
[33] = second compound 10 µM, first compound 0.316 µM
[34] = second compound 10 µM, first compound 1 µM
[35] = second compound 10 µM, first compound 3.16 µM
[36] = second compound 10 µM, first compound 10 µM
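Note: spheroids exposed to compound for 7 days before viability read.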
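Throughout, for viability, T/C: 100% = DMSO vehicle-treated spheroids.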

C#Cc1c(F)ccc2cc(O)cc(-c3ncc4c(N5CC6CCC(C5)N6)nc(OCC56CCCN5CC(F)C6)nc4c3F)c12 (centres undefined) + CC(Nc1ncnc2nc[nH]c12)c1cc2cccc(Cl)c2c(=O)n1-c1ccccc1
inactive: viability, T/C [1] 89.6% | viability, T/C [2] 78.5% | viability, T/C [3] 54% | viability, T/C [4] 44.5% | viability, T/C [5] 35.7% | viability, T/C [6] 29.4% | viability, T/C [7] 78.6% | viability, T/C [8] 80.1% | viability, T/C [9] 57% | viability, T/C [10] 43.9% | viability, T/C [11] 34.7% | viability, T/C [12] 24.3% | viability, T/C [13] 83.3% | viability, T/C [14] 71% | viability, T/C [15] 51.6% | viability, T/C [16] 41.8% | viability, T/C [17] 29.7% | viability, T/C [18] 23.2% | viability, T/C [19] 76% | viability, T/C [20] 68.8% | viability, T/C [21] 47.9% | viability, T/C [22] 34.3% | viability, T/C [23] 26.6% | viability, T/C [24] 19.7% | viability, T/C [25] 72.2% | viability, T/C [26] 50.1% | viability, T/C [27] 37.1% | viability, T/C [28] 23.9% | viability, T/C [29] 18.2% | viability, T/C [30] 13.4% | viability, T/C [31] 49.8% | viability, T/C [32] 32.6% | viability, T/C [33] 21.5% | viability, T/C [34] 16.9% | viability, T/C [35] 10.3%
active: viability, T/C [36] 6.78%
0.314 µM: IC50 (second compound 1 µM)
0.562 µM: IC50 (second compound 0.0316 µM)
0.108 µM: IC50 (second compound 3.16 µM)
< 0.0316 µM: IC50 (second compound 10 µM)
0.655 µM: IC50 (second compound 0.1 µM)
0.44 µM: IC50 (second compound 0.316 µM)

CC1(C)CCC(Nc2ncc(C(F)(F)F)c(-c3c[nH]c4c(P(C)(C)=O)c(C#N)ccc34)n2)CN1 (centres undefined) + CC(Nc1ncnc2nc[nH]c12)c1cc2cccc(Cl)c2c(=O)n1-c1ccccc1
5.22 µM: IC50 (second compound 1 µM)
inactive: viability, T/C [1] 68.3% | viability, T/C [2] 77.2% | viability, T/C [3] 71.8% | viability, T/C [4] 79.3% | viability, T/C [5] 84.1% | viability, T/C [6] 28.1% | viability, T/C [7] 65.5% | viability, T/C [8] 74.5% | viability, T/C [9] 73.1% | viability, T/C [10] 81.5% | viability, T/C [11] 88.8% | viability, T/C [12] 23.3% | viability, T/C [13] 65.5% | viability, T/C [14] 75.1% | viability, T/C [15] 74.1% | viability, T/C [16] 83.2% | viability, T/C [17] 81.9% | viability, T/C [18] 23.4% | viability, T/C [19] 69.1% | viability, T/C [20] 69% | viability, T/C [21] 73.8% | viability, T/C [22] 78.6% | viability, T/C [23] 73% | viability, T/C [24] 20.6% | viability, T/C [25] 66% | viability, T/C [26] 65% | viability, T/C [27] 67.9% | viability, T/C [28] 71.4% | viability, T/C [29] 65.3% | viability, T/C [30] 12.7% | viability, T/C [31] 51% | viability, T/C [32] 47% | viability, T/C [33] 45.9% | viability, T/C [34] 48.5% | viability, T/C [35] 41.4%
4.43 µM: IC50 (second compound 3.16 µM)
5.91 µM: IC50 (second compound 0.0316 µM)
5.62 µM: IC50 (second compound 0.1 µM)
5.58 µM: IC50 (second compound 0.316 µM)
active: viability, T/C [36] 3.63%
< 0.0316 µM: IC50 (second compound 10 µM)
